The text below walks through data of publication PMC8901636, “Preclinical studies of Flonoltinib Maleate, a novel JAK2/FLT3 inhibitor, in treatment of JAK2^V617F-induced myeloproliferative neoplasms” (Blood Cancer Journal, 2022).

The test system of data set [1] is Ba/F3-EPOR-JAK2^V617F cells. Briefly: Ba/F3-EPOR-JAK2^V617F malignancy mouse model. As to conditions: 30 mg/kg bid p.o.
For data set [2], the system named is Molm-13. Briefly: MTT assay for cell proliferation. It is filed as cell-based. Particulars: Homo sapiens; Molm-13; FLT3-ITD expression; MTT 72 h; read-out: IC50(μM) ± SD, tumor cell proliferation.
Experimental: (§1) For in vitro inhibition assays, cells were seeded in 96-well culture plates with a density of 15,000–20,000 cells/well after the cells reached 70–90% confluence. […] MTT (3-(4, 5-dimethylthiazol-2-yl)-2, 5-diphenyltetrazolium bromide) (Cat. No. 1334GR001; BioFroxx) assay was conducted in order to examine viability. The IC50 values were fitted using GraphPad Prism 7.0.
Data set [3] is described as follows: Bioavailability. As to conditions: rat, in vivo; rats; data not shown.
The subject of data set [4] is MV-4-11. Briefly: MTT assay for cell proliferation. It is filed as cell-based. As to conditions: Homo sapiens, MV4-11; MV-4-11; FLT3-ITD expression; MTT 72 h; read-out: IC50(μM) ± SD, tumor cell proliferation.
Experimental: as §1
Data set [5] has as its system Ba/F3-EPOR. Briefly: MTT assay for cell proliferation. Particulars: Mus musculus; Ba/F3-EPOR; IL-3-dependent growth; MTT 72 h; read-out: IC50(μM) ± SD, tumor cell proliferation. It is filed as cell-based, Murine.
Experimental: as §1
The subject of data set [6] is Ba/F3-FLT3-ITD^F691. Kind of data set: MTT assay for cell proliferation. It is filed as cell-based, Murine. Particulars: Mus musculus; Ba/F3-FLT3-ITD^F691; MTT 72 h; read-out: IC50(μM) ± SD, tumor cell proliferation.
Experimental: as §1
In data set [7] the test system is Ba/F3-JAK2^V617F cells. Kind of data set: Ba/F3-JAK2^V617F disease model.
In data set [8] the test system is Ba/F3-FLT3-ITD. Briefly: MTT assay for cell proliferation. It is filed as cell-based, Murine. Particulars: Mus musculus; Ba/F3-FLT3-ITD; MTT 72 h; read-out: IC50(μM) ± SD, tumor cell proliferation.
Experimental: as §1
Data set [9] in a line: Bioavailability. Particulars: dog, in vivo; dogs; data not shown.
The subject of data set [10] is Ba/F3-EPOR-JAK2^V617F. Kind of data set: MTT assay for cell proliferation. It is filed as cell-based, Murine. Particulars: Mus musculus; Ba/F3-EPOR-JAK2^V617F; MTT 72 h; read-out: IC50(μM) ± SD, tumor cell proliferation.
Experimental: as §1
Data set [11] concerns JAK2^V617F. Briefly: JAK2^V617F bone marrow transplantation (BMT) myelofibrosis model. Type of data set: in vivo, BALB/c mice. Particulars: 30 mg/kg bid p.o.
Data set [12] has as its system Ba/F3-JAK2^V617F. Briefly: MTT assay for cell proliferation. As to conditions: Mus musculus; Ba/F3-JAK2^V617F; MTT 72 h; read-out: IC50(μM) ± SD, tumor cell proliferation. Type of data set: cell-based, Murine.
Experimental: as §1
The subject of data set [13] is HEL. Briefly: MTT assay for cell proliferation. Type of data set: cell-based. Particulars: Homo sapiens, JAK2V617F, MTT 72 h, read-out: IC50(μM) ± SD, tumor cell proliferation.
Experimental: as §1
Data set [14] deals with Ba/F3-JAK2^WT. Briefly: MTT assay for cell proliferation. Type of data set: cell-based, Murine. As to conditions: Mus musculus; Ba/F3-JAK2^WT; IL-3-dependent growth; MTT 72 h; read-out: IC50(μM) ± SD, tumor cell proliferation.
Experimental: as §1
Data set [15] relates to Ba/F3-FLT3-ITD^D835V. Briefly: MTT assay for cell proliferation. Type of data set: cell-based, Murine. Particulars: Mus musculus; Ba/F3-FLT3-ITD^D835V; MTT 72 h; read-out: IC50(μM) ± SD, tumor cell proliferation.
Experimental: as §1

In the case of `Cc1cnc(Nc2ccc(OCCN3CCCC3)cc2)nc1Nc1cccc(S(=O)(=O)NC(C)(C)C)c1` [Fedratinib, reference compound], in data set [1] (16 days), the “spleen suppression rate” value was -40.23%. Besides, the median survival time in [1] (vehicle 19 days) is 22 days; in data set [11] (vehicle 133.5 days) it was above 180 days. The IC50 in data set [2] came out at 0.17 ± 0.01 µM; in [4] it was 0.26 ± 0.11 µM; in data set [5], 0.97 ± 0.23 µM; in data set [6] it was 0.74 ± 0.15 µM; in data set [8] it was 0.21 ± 0.05 µM; in [10], 1.71 ± 0.04 µM. Further, the IC50 in data set [12] is 0.61 ± 0.13 µM; in data set [13], 0.77 ± 0.36 µM; in data set [14], 0.68 ± 0.12 µM; in data set [15], 0.37 ± 0.04 µM. In addition, the values for the bioavailability in data set [3] and in data set [9] were 19% and 37%, respectively. Also, the “inhibition of the spleen growth” value in data set [7] (30 mg/kg bid p.o., 22 days, figure prints it with a minus sign over Spleen Weight (mg)) was found to be 67.44%. In addition, the median survival in [7] (30 mg/kg bid p.o., vehicle 25 days) is recorded as 28 days. Moreover, the “body weight during treatment” value in [7] (any dose) is “no obvious body weight decrease”. This molecule gave an inhibition of splenomegaly in data set [11] (figure prints it with a minus sign over Spleen Wight (mg)) of 90.56%.
